± gives the standard deviation of the averaged measurements.
Test system: SW872
Assay: relative viability vs DMSO control (72 h) (fraction); higher = more viable cells
Outline: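 Densities for seeding sarcoma cell lines into 384-well plates were set to give 80–90% confluence. After 24 h, 2.5 µl of serially diluted compound from source plates of 10 mM to 0.0002 mM went in, and plates stayed 72 h at 37 °C in 5% CO2 with 0.1% DMSO vehicle and a 5 µM positive control. Percent growth from ATPLite readings, averaged over up to triplicate wells, served as relative viability, rescaled so 1 means full and 0 means none.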

| Compound | relative viability (0.00017 µM) | relative viability (0.00051 µM) | relative viability (0.00152 µM) | relative viability (0.00457 µM) | relative viability (0.01372 µM) | relative viability (0.04115 µM) | relative viability (0.1235 µM) | relative viability (0.3704 µM) | relative viability (1.111 µM) | relative viability (3.333 µM) | relative viability (10 µM) | relative viability (2 pM) | relative viability (5 pM) | relative viability (15 pM) | relative viability (50 pM) | relative viability (0.00014 µM) | relative viability (0.00041 µM) | relative viability (0.0012 µM) | relative viability (0.0037 µM) | relative viability (0.011 µM) | relative viability (200 fM) | relative viability (600 fM) |
| --- | --- | --- | --- | --- | --- | --- | --- | --- | --- | --- | --- | --- | --- | --- | --- | --- | --- | --- | --- | --- | --- | --- |
| Cc1ccc(F)c(NC(=O)Nc2ccc(-c3cccc4[nH]nc(N)c34)cc2)c1 [Linifanib] | 1.07 ± 0.042 | 1.06 ± 0.048 | 1.07 ± 0.028 | 1.02 ± 0.027 | 1.012 ± 0.0025 | 1.01 ± 0.015 | 1.01 ± 0.053 | 0.991 ± 0.022 | 1.02 ± 0.033 | 1.05 ± 0.049 | 1.03 ± 0.076 | – | – | – | – | – | – | – | – | – | – | – |
| C[C@]1(O)C[C@@H](c2nc(-c3ccc4ccc(-c5ccccc5)nc4c3)c3c(N)nccn32)C1 [Linsitinib] | 1.04 ± 0.037 | 1.05 ± 0.014 | 1.03 ± 0.041 | 1 ± 0.043 | 0.995 ± 0.048 | 0.973 ± 0.027 | 0.9745 ± 0.0092 | 0.9267 ± 0.0035 | 0.914 ± 0.027 | 0.821 ± 0.028 | 0.615 ± 0.018 | – | – | – | – | – | – | – | – | – | – | – |
| Cc1ccc(NC(=O)c2ccc(CN3CCN(C)CC3)cc2)cc1Nc1nc(-c2cccnc2)cs1 [Masitinib] | 1.03 ± 0.044 | 1.06 ± 0.028 | 1.04 ± 0.029 | 1.03 ± 0.041 | 1.04 ± 0.038 | 1.06 ± 0.03 | 1.006 ± 0.006 | 0.979 ± 0.021 | 0.798 ± 0.015 | 0.519 ± 0.0078 | 0.127 ± 0.012 | – | – | – | – | – | – | – | – | – | – | – |
| CC1(C)CNc2cc(NC(=O)c3cccnc3NCc3ccncc3)ccc21 [Motesanib] | 1 ± 0.03 | 0.988 ± 0.014 | 0.972 ± 0.025 | 0.971 ± 0.029 | 0.95 ± 0.047 | 0.98 ± 0.012 | 0.971 ± 0.035 | 0.999 ± 0.015 | 0.978 ± 0.021 | 0.958 ± 0.035 | 0.811 ± 0.028 | – | – | – | – | – | – | – | – | – | – | – |
| CC(C)N1CCN(Cc2cnc(-c3cc(-c4cccc5[nH]ccc45)cc4[nH]ncc34)o2)CC1 [Nemiralisib] | 0.975 ± 0.035 | 0.982 ± 0.036 | 0.945 ± 0.043 | 0.945 ± 0.018 | 0.916 ± 0.033 | 0.949 ± 0.042 | 0.952 ± 0.018 | 0.896 ± 0.014 | 0.819 ± 0.032 | 0.622 ± 0.043 | 0.448 ± 0.017 | – | – | – | – | – | – | – | – | – | – | – |
| C=CC(=O)Nc1cccc(Oc2nc(Nc3ccc(N4CCN(C)CC4)cc3)nc3ccsc23)c1 [Olmutinib] | 1.01 ± 0.04 | 1.03 ± 0.011 | 1.02 ± 0.029 | 1.03 ± 0.034 | 1.034 ± 0.0086 | 1.01 ± 0.044 | 1.01 ± 0.011 | 1.02 ± 0.018 | 1.011 ± 0.0092 | 0.873 ± 0.05 | 0.625 ± 0.015 | – | – | – | – | – | – | – | – | – | – | – |
| CC(C)(C)c1cc(NC(=O)Nc2ccc(-c3cn4c(n3)sc3cc(OCCN5CCOCC5)ccc34)cc2)no1 [Quizartinib] | 1.05 ± 0.023 | 1.045 ± 0.0071 | 1.05 ± 0.0053 | 1.041 ± 0.0092 | 1.051 ± 0.0052 | 1.04 ± 0.012 | 1.04 ± 0.019 | 1.03 ± 0.037 | 1.029 ± 0.01 | 1.032 ± 0.0056 | 1.02 ± 0.018 | – | – | – | – | – | – | – | – | – | – | – |
| CNC(=O)c1cc(Oc2ccc(NC(=O)Nc3ccc(Cl)c(C(F)(F)F)c3)c(F)c2)ccn1 [Regorafenib] | 1.11 ± 0.07 | 1.12 ± 0.039 | 1.12 ± 0.034 | 1.14 ± 0.025 | 1.14 ± 0.017 | 1.119 ± 0.011 | 1.11 ± 0.013 | 1.07 ± 0.061 | 0.96 ± 0.027 | 0.824 ± 0.058 | 0.662 ± 0.027 | – | – | – | – | – | – | – | – | – | – | – |
| CO[C@H]1C[C@@H]2CC[C@@H](C)[C@@](O)(O2)C(=O)C(=O)N2CCCC[C@H]2C(=O)O[C@H]([C@H](C)C[C@@H]2CC[C@@H](OP(C)(C)=O)[C@H](OC)C2)CC(=O)[C@H](C)/C=C(\C)[C@@H](O)[C@@H](OC)C(=O)[C@H](C)C[C@H](C)/C=C/C=C/C=C/1C [Ridaforolimus] | 0.974 ± 0.036 | 0.833 ± 0.034 | 0.747 ± 0.021 | 0.7118 ± 0.0071 | 0.626 ± 0.035 | 0.6 ± 0.034 | 0.5981 ± 0.0039 | 0.597 ± 0.0072 | 0.579 ± 0.012 | 0.565 ± 0.017 | 0.565 ± 0.015 | – | – | – | – | – | – | – | – | – | – | – |
| COCc1c(-c2cc3cc(C)cc(OC)c3s2)c2c(N)ncnn2c1CN1CCNC(=O)C1 [Rogaratinib] | 1.08 ± 0.043 | 1.07 ± 0.012 | 1.06 ± 0.045 | 1.03 ± 0.013 | 1.003 ± 0.0078 | 1.03 ± 0.011 | 1.03 ± 0.026 | 0.992 ± 0.028 | 0.952 ± 0.02 | 0.815 ± 0.051 | 0.513 ± 0.0093 | – | – | – | – | – | – | – | – | – | – | – |
| N#CC[C@H](C1CCCC1)n1cc(-c2ncnc3[nH]ccc23)cn1 [Ruxolitinib] | 1.02 ± 0.032 | 1.048 ± 0.0078 | 1.052 ± 0.009 | 1.01 ± 0.014 | 0.9983 ± 0.0075 | 0.998 ± 0.038 | 0.974 ± 0.046 | 0.954 ± 0.059 | 0.914 ± 0.075 | 0.886 ± 0.041 | 0.729 ± 0.024 | – | – | – | – | – | – | – | – | – | – | – |
| Cc1cc(C)c(/C=C2\C(=O)Nc3ccccc32)[nH]1 [Semaxanib] | 0.968 ± 0.038 | 0.968 ± 0.024 | 0.938 ± 0.084 | 0.933 ± 0.067 | 0.936 ± 0.062 | 0.953 ± 0.067 | 0.979 ± 0.022 | 0.99 ± 0.028 | 0.963 ± 0.042 | 0.972 ± 0.031 | 0.8936 ± 0.0083 | – | – | – | – | – | – | – | – | – | – | – |
| Cc1nc(-c2cn3c(n2)-c2ccc(-c4cnn(C(C)(C)C(N)=O)c4)cc2OCC3)n(C(C)C)n1 [Taselisib] | 1 ± 0.044 | 0.996 ± 0.03 | 1.02 ± 0.021 | 0.9808 ± 0.006 | 0.93 ± 0.061 | 0.88 ± 0.017 | 0.758 ± 0.029 | 0.643 ± 0.012 | 0.504 ± 0.015 | 0.381 ± 0.015 | 0.284 ± 0.018 | – | – | – | – | – | – | – | – | – | – | – |
| CN1CCC(COc2cnc(-c3cccc(Cn4nc(-c5cccc(C#N)c5)ccc4=O)c3)nc2)CC1 [Tepotinib] | 1.057 ± 0.008 | 1.07 ± 0.02 | 1.05 ± 0.037 | 1.04 ± 0.022 | 1.03 ± 0.038 | 1.01 ± 0.022 | 1.04 ± 0.016 | 1.02 ± 0.043 | 0.999 ± 0.019 | 0.972 ± 0.039 | 0.918 ± 0.033 | – | – | – | – | – | – | – | – | – | – | – |
| COc1cc2nccc(Oc3ccc(NC(=O)Nc4cc(C)on4)c(Cl)c3)c2cc1OC [Tivozanib] | 1.07 ± 0.073 | 1.07 ± 0.026 | 1.04 ± 0.031 | 1.06 ± 0.038 | 1.08 ± 0.031 | 1.09 ± 0.039 | 1.08 ± 0.044 | 1.1 ± 0.051 | 1.07 ± 0.028 | 1.03 ± 0.036 | 0.691 ± 0.031 | – | – | – | – | – | – | – | – | – | – | – |
| C[C@@H]1CCN(C(=O)CC#N)C[C@@H]1N(C)c1ncnc2[nH]ccc12 [Tofacitinib] | 1.12 ± 0.03 | 1.08 ± 0.035 | 1.1 ± 0.028 | 1.09 ± 0.056 | 1.08 ± 0.032 | 1.04 ± 0.081 | 1.03 ± 0.056 | 1.02 ± 0.063 | 0.946 ± 0.068 | 0.887 ± 0.095 | 0.747 ± 0.064 | – | – | – | – | – | – | – | – | – | – | – |
| COc1cc2c(cc1O)CCN[C@]21CS[C@@H]2c3c(OC(C)=O)c(C)c4c(c3[C@H](COC1=O)N1[C@@H]2[C@H]2c3c(cc(C)c(OC)c3O)C[C@@H]([C@@H]1O)N2C)OCO4 [Trabectedin] | – | – | – | – | – | – | – | – | – | – | – | 1.045 ± 0.0069 | 0.986 ± 0.05 | 0.835 ± 0.034 | 0.606 ± 0.1 | 0.281 ± 0.028 | 0.158 ± 0.0096 | 0.202 ± 0.01 | 0.245 ± 0.0073 | 0.183 ± 0.0041 | 1.03 ± 0.037 | 1.038 ± 0.0094 |
| CC(=O)Nc1cccc(-n2c(=O)n(C3CC3)c(=O)c3c(Nc4ccc(I)cc4F)n(C)c(=O)c(C)c32)c1 [Trametinib] | 1.11 ± 0.046 | 1.05 ± 0.055 | 0.856 ± 0.059 | 0.674 ± 0.046 | 0.597 ± 0.0061 | 0.607 ± 0.034 | 0.593 ± 0.008 | 0.593 ± 0.022 | 0.562 ± 0.015 | 0.549 ± 0.031 | 0.564 ± 0.014 | – | – | – | – | – | – | – | – | – | – | – |
| Cc1cc(Nc2ncnc3ccc(NC4=NC(C)(C)CO4)cc23)ccc1Oc1ccn2ncnc2c1 [Tucatinib] | 1.07 ± 0.017 | 1.08 ± 0.04 | 1.08 ± 0.016 | 1.09 ± 0.037 | 1.07 ± 0.051 | 1.08 ± 0.011 | 1.08 ± 0.017 | 1.04 ± 0.035 | 1.06 ± 0.04 | 1.03 ± 0.045 | 0.994 ± 0.038 | – | – | – | – | – | – | – | – | – | – | – |
